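Tested at 5 concentrations; 48 h exposure; 96-well plates; endpoints linearly interpolated, else capped at highest concentration. At the TGI there is no net growth.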 A value given as a limit tells only on which side of the number the result lay.

For 18 compounds, TGI results are on record in PubChem BioAssay (NCI).

Holding throughout (test): inhibition of tumour cell growth, NCI panel, 48 h
Assay [1] deals with PC-3 prostate.
Assay [2] has as its system 786-0 renal.
The test system of assay [3] is TK-10 renal.
In assay [4] the test system is U251 CNS.
For assay [5], the system named is HOP-62 NSCLC.
Assay [6] relates to SN12C renal.
The test system of assay [7] is HOP-92 NSCLC.
Assay [8] concerns NCI-H460 lung.
Assay [9] deals with UACC-62 melanoma.
For assay [10], the system named is RXF 393 renal.

On to `O=C(OCCN=C1c2ccccc2CCc2ccccc21)c1cc([N+](=O)[O-])cc([N+](=O)[O-])c1`, for which the TGI in assay [1] was over 31.6 µM; in [2], over 31.6 µM; in assay [3], over 31.6 µM; in assay [4], over 100 µM; in assay [5], over 31.6 µM; in [6], over 31.6 µM. Moreover, the TGI in assay [7], in [8], in assay [9] and in assay [10] was over 31.6 µM throughout.
As for `CCCC1NC(=O)C(CC(C)C)NC(=O)c2cccc(n2)C(=O)NC(CC(C)C)C(=O)NC(CCC)C(=O)NC(C(=O)OC)CCCCNC1=O` (stereo not given), the TGI in assay [1] was 91.3 µM; in assay [2], over 100 µM; in assay [3], over 100 µM; in assay [4] it was over 100 µM; in [5], over 100 µM; in [6] it was over 100 µM. Also, the TGI in assay [7] is 65.9 µM; in [8] it was over 100 µM; in assay [9] it was 51.5 µM; in assay [10] it was over 100 µM.
For `CCOC(=O)c1cc2cc(N(C(C)=O)C(C)=O)ccc2s1`, the TGI in assay [1] is 46.2 µM; in [2] it was over 100 µM; in assay [3] it was over 100 µM; in assay [4] it was 59.6 µM; in assay [5], over 100 µM; in assay [6], 71.2 µM. For the same compound, the TGI in assay [7] is over 100 µM; in assay [8] it was over 100 µM; in [9] it was over 100 µM; in assay [10] it was 42.7 µM.
With `Clc1ccc(N=C/C=C/Nc2ccc(Cl)cn2)nc1`, the TGI turned out to be 27.6 µM in [1]; 18.3 µM in assay [2]; 34.9 µM in [3]; 20.7 µM in [4]; 31 µM in [5]; 28.6 µM in assay [6]. The TGI came to 30.1 µM in assay [7], 32.7 µM in assay [8], 26.2 µM in [9] and 34.9 µM in assay [10].
`CSc1ccc2c(cc1=O)[C@@H](NC(C)=O)CCc1cc(O)c(O)c(O)c1-2`: the TGI is over 100 µM in assay [1]; 32.4 µM in [2]; 34.6 µM in assay [3]; 45.3 µM in assay [4]; 32.3 µM in assay [5]; over 100 µM in [6]. Moreover, the TGI in [7] is 70.6 µM; in assay [8], 36.2 µM; in [9], over 100 µM; in [10] it was over 100 µM.
Turning to `CC(=O)N=C(N=Nc1c(O)[nH]c2ccc(C)cc12)NC(C)=O`, the TGI in assay [1], in assay [2], in [3], in [4], in assay [5] and in [6] was over 100 µM throughout. The TGI in assay [7], in assay [8], in assay [9] and in [10] was over 100 µM each time.
Take `O=C(O)CC(C(=O)O)c1ccccc1[N+](=O)[O-]` (stereo not given): the TGI in assay [1], in assay [2], in assay [3], in [4], in assay [5] and in assay [6] was over 100 µM each time. The TGI in [7], in assay [8], in assay [9] and in [10] was over 100 µM each time.
For the compound `O=c1c2ccccc2nc2n1NC(c1c(Cl)cccc1Cl)N2c1cccc(Cl)c1` (stereo not given), the TGI was 28.1 µM in assay [1]; 4.24 µM in assay [2]; 21.8 µM in assay [3]; 5.19 µM in [4]; over 100 µM in [5]; 21.9 µM in assay [6]. Besides, the TGI is 21.8 µM in assay [7], 34.6 µM in [8], 22.9 µM in assay [9] and 18.5 µM in assay [10].
For `OC1(c2ccccc2)CC2CCC(C1)N2CCc1ccccc1` (stereo not given), the TGI in assay [1], in assay [2], in assay [3], in assay [4], in assay [5] and in assay [6] was over 100 µM throughout. Moreover, the TGI in [7], in assay [8], in [9] and in [10] was over 100 µM throughout.
Turning to `Cc1ccc(/C=C2\CN(C)CC3=C2OC(N)=C(C#N)C3c2ccc(C)cc2)cc1` (stereo not given), the TGI in assay [1] is over 45.1 µM; in assay [2] it was 32 µM; in [3], over 80.8 µM; in assay [4], over 61.1 µM; in assay [5] it was 52.7 µM; in [6], 35.3 µM. Moreover, the TGI came out at 15.9 µM in assay [7], 34.3 µM in assay [8], 89.1 µM in [9] and 28.3 µM in [10].
In the case of `CCOc1c2ccsc2c(OCC)c2ccsc12`, the TGI in [1], in assay [2], in [3], in assay [4], in assay [5] and in assay [6] was over 100 µM each time. The TGI in assay [7] is 86.2 µM; in assay [8] it was over 100 µM; in assay [9] it was over 100 µM; in assay [10], over 24.2 µM.
Consider `CCOC(=O)c1c(C)n(Cc2ccccc2)c(=O)c2ccccc2c(=O)c2c(=O)ccc(=O)c1=2`, for which the TGI in [1] was over 100 µM; in assay [2], 75.3 µM; in assay [3], 54 µM; in assay [4] it was over 100 µM; in assay [5], over 100 µM; in [6], over 100 µM. For the same compound, the TGI is 41.5 µM in [7], over 100 µM in assay [8], over 100 µM in assay [9] and 40.7 µM in [10].
Regarding `CNC(=S)/C(=N\Nc1nc[nH]c1C(N)=O)C(N)=S`, the TGI in assay [1] is over 100 µM; in assay [2], over 100 µM; in [3] it was over 57.5 µM; in [4] it was over 82.8 µM; in assay [5], over 100 µM; in [6] it was 18.9 µM. For the same compound, the TGI is 99.4 µM in [7], over 100 µM in [8], over 92.8 µM in assay [9] and over 100 µM in assay [10].
`Cc1cc2nc3n[nH]c(N)c3nc2cc1C`: the TGI in assay [1], in [2], in assay [3], in assay [4], in assay [5] and in [6] was over 100 µM throughout. Also, the TGI in [7], in [8], in assay [9] and in [10] was over 100 µM in each case.
Consider `COc1cc(NS(C)(=O)=O)ccc1NCc1cnc2ccc3[nH]c(C)ccc3c12`, for which the TGI in assay [1], in [2], in assay [3], in assay [4], in [5] and in assay [6] was over 100 µM each time. Besides, the TGI in assay [7] was over 100 µM; in assay [8], over 100 µM; in assay [9], over 100 µM; in assay [10], 39.5 µM.
As for `NC(=O)NC(=O)c1cnccn1`, the TGI in [1], in assay [2], in assay [3], in assay [4], in assay [5] and in [6] was over 100 µM each time. The TGI in assay [7], in assay [8], in [9] and in assay [10] was over 100 µM throughout.
`CN1CCCN2CCN(C)CCN(CC1)CC2`: the TGI in assay [1], in assay [2], in assay [3], in assay [4], in assay [5] and in assay [6] was over 100 µM throughout. The TGI in assay [7], in assay [8], in assay [9] and in assay [10] was over 100 µM throughout.
On to `Cc1ccc2c(c1)SSSSS2`, for which the TGI was 57.8 µM in assay [1]; 37.2 µM in [2]; 37.9 µM in [3]; over 100 µM in assay [4]; 38 µM in assay [5]; 46.7 µM in assay [6]. Besides, the TGI was found to be 34.5 µM in assay [7], 32.5 µM in assay [8], 36.2 µM in assay [9] and 39 µM in assay [10].
